Assay results taken from US20240324594A1, “Method for Controlling Diamide Resistant Pests and Compounds Therefor” (priority 2021, published 2024).

Legend:
[1] = test system: Plutella xylostella (Diamond back moth) ryanodine receptor, containing the G4946E resistance mutation; test: In vitro calcium fluorescence assay (Fluo-8 NW, FDSS) in human embryonic kidney cells expressing the ryanodine receptor; type: cell-based; settings: HEK cells expressing P. xylostella RyR G4946E; EC50 normalized against in-assay reference cyantraniliprole; ratio <=1 means equally or more active
Method: Human embryonic kidney cells expressing the Plutella xylostella (Diamond back moth) ryanodine receptor, containing the G4946E resistance mutation, are loaded with Fluo-8 No Wash (NW) calcium-sensitive dye which responds by fluorescence to a change in intracellular calcium (e.g. stimulated by activation of ryanodine receptor). Test compounds are added in 10 rates to a 384-well plate containing dye-loaded cells and the fluorescent signal is measured using the Hamamatsu FDSS (Functional Drug Screening system). Dose-response curves are plotted to estimate the EC50. EC50 are normalized against an in-assay reference standard (cyantraniliprole) to address inter-assay variability. The ratio for a given compound is then obtained by the following formula: REC50=EC50 (compound)/EC50 (cyantraniliprole).

[2] = test system: Resistant Plutella xylostella R1 (G4946E resistance mutation); test: Resistant Plutella xylostella R1 (Diamond back moth) larvicide L3, feeding/contact; type: in vivo; settings: CTPR used as standard
Method: Resistant Plutella xylostella R1 (Diamond back moth) larvicide L3, feeding/contact Chinese cabbage plants were sprayed with diluted test solutions in an application chamber. Cut off leaves were placed into petri dishes with wetted filter paper and infested 1 day after application with 10 L3 multi-resistant Plutella xylostella larvae having the G4946E resistance mutation. Samples were assessed 4 days after infestation for mortality and growth regulation. CTPR was used as standard and a resistance factor of 146 was obtained for this strain.
Plutella xylostella resistant strain R1 originally collected from Taiwan in 2012 that carries the RyR mutation G4946E conferring resistance to diamides. The strain is reared on cabbage plants (Brassica oleracea) and selected approximately every two weeks with chlorantraniliprole.

[3] = test system: Resistant Plutella xylostella R4 (RyR mutation G4946E); test: Resistant Plutella xylostella R4 (Diamond back moth) larvicide L1, feeding/contact; type: in vivo; settings: CTPR used as standard
Method: Resistant Plutella xylostella R4 (Diamond back moth) larvicide L1, feeding/contact 24-well microtiter plates with artificial diet were treated with aqueous test solutions prepared from 10,000 ppm DMSO stock solutions by pipetting. After drying, around 30 Plutella eggs were pipetted through a plastic stencil onto a gel blotting paper and the plate was closed with it. The samples were assessed for mortality in comparison to untreated samples 8 days after infestation. CTPR was used as standard and a resistance factor of 242 was obtained for this strain
Plutella xylostella resistant strain R4 originated in the lab in 2021 from crossing the R1 strain with a lab-reared susceptible P. xylostella strain (SUS). R4 can be reared and tested on artificial diet and also carries the RyR mutation G4946E conferring resistance to diamides. The strain is selected approximately every two weeks with chlorantraniliprole.

| SMILES | melting point [°C] | REC50 = EC50 (compound)/EC50 (cyantraniliprole) [1] | other results |
| --- | --- | --- | --- |
| Cc1cc2nn[nH]c2c(C(N)=O)c1NC(=O)c1cc(OCC(F)(F)F)nn1-c1ncccc1Cl | 142.2 to 160.3 |  |  |
| Cc1cc2cn[nH]c2c(C(N)=O)c1NC(=O)c1cc(Cn2nnc(C(F)(F)F)n2)nn1-c1ncccc1Cl | 233 to 240 |  |  |
| Cc1nc2cc(C)c(NC(=O)c3cc(Br)nn3-c3ncccc3Cl)c(C(N)=O)c2o1 | > 250 |  |  |
| Cc1cc2c(c(C(N)=O)c1NC(=O)c1cc(OCC(F)(F)F)nn1-c1ncccc1Cl)OC(F)(F)O2 | 240 to 245 |  |  |
| Cc1cc2nn[nH]c2c(C(N)=O)c1NC(=O)c1cc(OC(F)F)nn1-c1ncccc1Cl | 147.5 to 161.2 |  |  |
| Cc1cc2c(c(C(=O)NC(C)C)c1NC(=O)c1cc(C(F)(F)F)nn1-c1ncccc1Cl)OC(F)(F)O2 [2-(3-chloro-2-pyridyl)-N-[2,2-difluoro-4-(isopropylcarbamoyl)-6-methyl-1,3-benzodioxol-5-yl]-5-(trifluoromethyl)pyrazole-3-carboxamide] |  | 7.27 |  |
| CNC(=O)c1c(NC(=O)c2cc(C(F)(F)F)nn2-c2ncccc2Cl)c(C)cc2c1OC(F)(F)O2 [2-(3-chloro-2-pyridyl)-N-[2,2-difluoro-6-methyl-4-(methylcarbamoyl)-1,3-benzodioxol-5-yl]-5-(trifluoromethyl)pyrazole-3-carboxamide] |  | 4.65 |  |
| CNC(=O)c1c(NC(=O)c2cc(Cn3cc(C(F)(F)F)nn3)nn2-c2ncccc2Cl)c(C)cc2c1OC(F)(F)O2 [2-(3-chloro-2-pyridyl)-N-[2,2-difluoro-6-methyl-4-(methylcarbamoyl)-1,3-benzodioxol-5-yl]-5-[[4-(trifluoromethyl)triazol-1-yl]methyl]pyrazole-3-carboxamide] |  | 2.55 |  |
| CNC(=O)c1c(NC(=O)c2cc(Cn3ncc(C(F)(F)F)n3)nn2-c2ncccc2Cl)c(C)cc2c1OC(F)(F)O2 [2-(3-chloro-2-pyridyl)-N-[2,2-difluoro-6-methyl-4-(methylcarbamoyl)-1,3-benzodioxol-5-yl]-5-[[4-(trifluoromethyl)triazol-2-yl]methyl]pyrazole-3-carboxamide] |  | 6.26 |  |
| CNC(=O)c1c(NC(=O)c2cc(Cn3nnc(C(F)(F)F)n3)nn2-c2ncccc2Cl)c(C)cc2c1OC(F)(F)O2 [2-(3-chloro-2-pyridyl)-N-[2,2-difluoro-6-methyl-4-(methylcarbamoyl)-1,3-benzodioxol-5-yl]-5-[[5-(trifluoromethyl)tetrazol-2-yl]methyl]pyrazole-3-carboxamide] |  | 5.77 |  |
| CNC(=O)c1cc(Cl)cc(C)c1NC(=O)c1cc(Br)nn1-c1ncccc1Cl [CTPR, chlorantraniliprole] |  |  | resistance factor obtained for strain R1 [2]: 146; resistance factor obtained for strain R4 [3]: 242 |
| Cc1cc2c(c(C(N)=O)c1NC(=O)c1cc(C(F)(F)F)nn1-c1ncccc1Cl)OC(F)(F)O2 [Compound P19, N-(4-carbamoyl-2,2-difluoro-6-methyl-1,3-benzodioxol-5-yl)-2-(3-chloro-2-pyridyl)-5-(trifluoromethyl)pyrazole-3-carboxamide] |  | 0.50 |  |
| Cc1cc2c(c(C(N)=O)c1NC(=O)c1cc(Cn3ncc(C(F)(F)F)n3)nn1-c1ncccc1Cl)OC(F)(F)O2 [Compound P21, N-(4-carbamoyl-2,2-difluoro-6-methyl-1,3-benzodioxol-5-yl)-2-(3-chloro-2-pyridyl)-5-[[4-(trifluoromethyl)triazol-2-yl]methyl]pyrazole-3-carboxamide] |  | 0.55 |  |
| Cc1cc2c(c(C(N)=O)c1NC(=O)c1cc(Cn3cc(C(F)(F)F)nn3)nn1-c1ncccc1Cl)OC(F)(F)O2 [Compound P22, N-(4-carbamoyl-2,2-difluoro-6-methyl-1,3-benzodioxol-5-yl)-2-(3-chloro-2-pyridyl)-5-[[4-(trifluoromethyl)triazol-1-yl]methyl]pyrazole-3-carboxamide] |  | 0.91 |  |
| Cc1cc2c(c(C(N)=O)c1NC(=O)c1cc(Cn3nnc(C(F)(F)F)n3)nn1-c1ncccc1Cl)OC(F)(F)O2 [Compound P24, N-(4-carbamoyl-2,2-difluoro-6-methyl-1,3-benzodioxol-5-yl)-2-(3-chloro-2-pyridyl)-5-[[5-(trifluoromethyl)tetrazol-2-yl]methyl]pyrazole-3-carboxamide] |  | 0.34 |  |
